Measurements as given in article PMC12808100, “The non-catalytic DNA polymerase ε subunit is an NPF motif recognition protein” (Nature Communications, 2025).
Residues, ends and D or L forms follow the SMILES beside them.

Tests used:
POLE = assay: Titration nHU, Western blot, endogenous POLE in Jurkat extract; assay type: binding, human; settings: for Kd: source data of Fig 5, titration nHU, Jurkat extract, unit inferred; for binding to endogenous POLE: titration nHU with peptide bait, Western blot
Source text: (§1) To identify the partners of NPF motifs, we used the native holdup (nHU) assay that was recently developed by our team (Fig. 1B). The holdup approach has been extensively used to determine equilibrium dissociation constants of transient interactions mediated by PDZ and SH3 domains, 14-3-3, and human papilloma virus E6 proteins, and even nucleic acid-protein interactions[7],[30]–[35]. In the nHU experiments, a purified bait molecule, or a control compound, is immobilized on a resin at high concentration (typically 10 μM, or higher) and these resin stocks are subsequently mixed with dilute cell extracts. After a relatively long incubation, i.e., 2 h at 4 °C, the liquid phase is separated by centrifugation. This liquid phase contains the unbound prey molecules at near binding equilibrium that can be quantified using selective and quantitative analytical approaches, such as mass spectrometry. Therefore, proteins that interact with the bait molecule will appear to be depleted in the solvent phase and by measuring its relative concentration compared to the control nHU experiment, the degree of binding (θ) can be determined that can be converted to apparent steady-state dissociation constants, according to:1 θ=1−Ifree/Itot=Cbait/Cbait+Kapp where Itot and Ifree are the measured total and bait-depleted equilibrium mass spectrometry total ion intensities of prey proteins, Cbait is the bait molecule concentration and Kapp is the apparent dissociation constant.
(§2) Jurkat E6.1 cells (ECACC #88042803, RRID: CVCL_0367) were grown in RPMI (Gibco) medium completed with 10% FBS (Gibco BRL) and 40 μg/ml gentamicin (Gibco/Life Technology). To prepare total cell extracts, Jurkat cells were seeded onto T-175 flasks and grew until 3 × 10^6 cells/ml confluency. Cells were collected by 1000 g x 5 min centrifugation, washed with PBS and then lysed in ice-cold lysis buffer (Hepes-KOH pH 7.5 50 mM, NaCl 150 mM, Triton X-100 1%, cOmplete EDTA-free protease inhibitor cocktail 5x, TCEP 5 mM, glycerol 10%).
(§3) Cell suspensions were sonicated 4×20 sec with 1 sec long pulse on ice, then incubated rotating at 4 °C for 30 min. The lysates were centrifuged at 12,000 rpm 4 °C for 20 min and supernatant was kept. Total protein concentration was measured by standard Bradford method (Bio-Rad Protein Assay Dye Reagent #5000006) using a BSA calibration curve (MP Biomedicals #160069, diluted in lysis buffer) on a Bio-Rad SmartSpec 3000 spectrophotometer instrument.
(§4) Titration holdup experiments were carried out as described above using 25 μl saturated resins prepared. Briefly, we mixed control, or bait-saturated resins at various proportions by keeping the total resin amount and resin-analyte ratio constant during the experiment (for 25 μl we used 100 μl cell extract as analyte). In titration experiments with protein baits, bait concentration was determined as described above for the saturated resin stocks. Experiments were carried out at 4 °C for 2 h and recovered supernatants were subjected to western blot or dot blot analysis.
(§5) For Western blot, samples were mixed with 4x Laemmli Sample Buffer in 3:1 ratio. Equal amounts of samples were loaded on 6-10% acrylamide-gels (generally 16 μg). Transfer was done into PVDF membranes using a Trans-Blot Turbo Transfer System and Trans-Blot Turbo RTA Transfer Kit (BioRad, #1704275). For Dot blot, nHU samples were directly loaded on Nitrocellulose membranes using 48 Sample vacuum manifold (Cleaver Scientific) following the manufacturer’s recommendations.
After 1 h of blocking in 5% milk, membranes were incubated overnight at 4 °C with primary antibodies in 5% milk-TBS-Tween.

EPS15 = target: T1, EPS15 (Homo sapiens, UniProt P42566); assay: Titration nHU, Western blot, endogenous EPS15 in Jurkat extract; assay type: binding; settings: source data of Fig 5, titration nHU, unit inferred
T1 construct: endogenous in cells; host or cells: Jurkat E6.1
T1 sequence (P42566 1-896): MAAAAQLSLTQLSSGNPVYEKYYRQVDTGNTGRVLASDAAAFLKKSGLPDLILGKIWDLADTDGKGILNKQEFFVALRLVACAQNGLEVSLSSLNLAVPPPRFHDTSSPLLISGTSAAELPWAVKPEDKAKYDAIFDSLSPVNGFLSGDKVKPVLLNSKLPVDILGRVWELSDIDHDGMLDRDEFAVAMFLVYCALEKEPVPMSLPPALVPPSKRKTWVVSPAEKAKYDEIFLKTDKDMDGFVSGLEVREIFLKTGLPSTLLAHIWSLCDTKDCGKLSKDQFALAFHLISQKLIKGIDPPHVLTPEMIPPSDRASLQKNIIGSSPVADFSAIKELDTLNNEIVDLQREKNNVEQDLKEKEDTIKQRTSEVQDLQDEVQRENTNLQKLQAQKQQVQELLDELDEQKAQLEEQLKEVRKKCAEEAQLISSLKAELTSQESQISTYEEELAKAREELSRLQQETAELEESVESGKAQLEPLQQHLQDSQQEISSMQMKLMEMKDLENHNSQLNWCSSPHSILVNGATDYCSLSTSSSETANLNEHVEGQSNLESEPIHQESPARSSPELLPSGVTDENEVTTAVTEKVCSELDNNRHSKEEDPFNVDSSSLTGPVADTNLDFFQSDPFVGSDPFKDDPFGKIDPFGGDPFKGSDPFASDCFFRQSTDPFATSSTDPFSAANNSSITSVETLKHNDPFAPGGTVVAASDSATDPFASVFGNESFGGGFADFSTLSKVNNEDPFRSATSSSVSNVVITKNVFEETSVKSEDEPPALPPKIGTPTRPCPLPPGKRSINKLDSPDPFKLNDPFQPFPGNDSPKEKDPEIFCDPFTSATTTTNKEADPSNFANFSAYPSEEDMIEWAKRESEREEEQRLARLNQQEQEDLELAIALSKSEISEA
Source text: as §1, §2, §3, §4
as §5, with “recommendations. […]” for “recommendations.”

Row | Compound | Kd (POLE) | Kd (EPS15) | binding to endogenous POLE (POLE; listed as NPF motif of ERCC6L) | binding to endogenous POLE (POLE; listed as CLSPN) | binding to endogenous POLE (POLE; listed as Claspin)
1 | C[C@H](NC(=O)[C@H](C)NC(=O)[C@@H]1CCCN1C(=O)CNC(=O)CCCCCNC(=O)CCCC[C@@H]1SC[C@@H]2NC(=O)N[C@@H]21)C(=O)N[C@H](C(=O)N[C@@H](CCCNC(=N)N)C(=O)N[C@H](C(=O)N[C@@H](CC(N)=O)C(=O)N1CCC[C@H]1C(=O)N[C@@H](Cc1ccccc1)C(=O)N[C@@H](CO)C(=O)N[C@@H](CC(=O)O)C(=O)N[C@@H](CCCNC(=N)N)C(=O)N[C@@H](CC(=O)O)C(=O)N[C@@H](CC(N)=O)C(=O)N[C@@H](CCCNC(=N)N)C(=O)N1CCC[C@H]1C(=O)N[C@@H](CCCNC(=N)N)C(N)=O)[C@@H](C)O)[C@@H](C)O [DONSON_SYNJ1_NC] (HELM PEPTIDE1{[O=C1N[C@H]2[C@H](CS[C@H]2CCCCC(=O)[*:2])N1].[O=C(CCCCCN[*:1])[*:2]].G.P.A.A.T.R.T.N.P.F.S.D.R.D.N.R.P.R.[am]}$$$$V2.0) | > 200 µM | > 200 µM | – | – | –
2 | CC(C)C[C@H](NC(=O)[C@H](CCCNC(=N)N)NC(=O)[C@H](C)NC(=O)[C@H](Cc1ccccc1)NC(=O)[C@@H]1CCCN1C(=O)[C@H](CC(N)=O)NC(=O)[C@@H](NC(=O)[C@H](CCCNC(=N)N)NC(=O)[C@@H](NC(=O)[C@H](C)NC(=O)[C@H](C)NC(=O)[C@@H]1CCCN1C(=O)CNC(=O)CCCCCNC(=O)CCCC[C@@H]1SC[C@@H]2NC(=O)N[C@@H]21)[C@@H](C)O)[C@@H](C)O)C(=O)N[C@@H](CC(=O)O)C(=O)N[C@@H](CC(N)=O)C(=O)N[C@@H](CCCNC(=N)N)C(=O)N1CCC[C@H]1C(=O)N[C@@H](CCCNC(=N)N)C(N)=O [DONSON_SYNJ1_N] (HELM PEPTIDE1{[O=C1N[C@H]2[C@H](CS[C@H]2CCCCC(=O)[*:2])N1].[O=C(CCCCCN[*:1])[*:2]].G.P.A.A.T.R.T.N.P.F.A.R.L.D.N.R.P.R.[am]}$$$$V2.0) | 9.4 µM | > 30 µM | – | – | –
3 | RRIVSDGEDEDDSFKDTSSINPFNTSLFQFSSVKQFDAS [ERCC6L 1024-1062, biotinylated NPF motif peptide of ERCC6L] | – | – | No apparent binding | – | –
4 | CC(C)C[C@H](NC(=O)[C@H](CCCNC(=N)N)NC(=O)[C@H](C)NC(=O)[C@H](Cc1ccccc1)NC(=O)[C@@H]1CCCN1C(=O)[C@H](CC(N)=O)NC(=O)[C@H](CCCNC(=N)N)NC(=O)[C@H](CCCNC(=N)N)NC(=O)[C@H](C)NC(=O)[C@H](C)NC(=O)[C@H](CC(=O)O)NC(=O)[C@H](CC(C)C)NC(=O)[C@H](CCCNC(=N)N)NC(=O)[C@H](C)NC(=O)[C@H](Cc1ccccc1)NC(=O)[C@@H]1CCCN1C(=O)[C@H](CC(N)=O)NC(=O)[C@H](CCCNC(=N)N)NC(=O)[C@H](CCCNC(=N)N)NC(=O)[C@H](C)NC(=O)[C@H](CC(=O)O)NC(=O)[C@H](CC(C)C)NC(=O)[C@H](CCCNC(=N)N)NC(=O)[C@H](C)NC(=O)[C@H](Cc1ccccc1)NC(=O)[C@@H]1CCCN1C(=O)[C@H](CC(N)=O)NC(=O)[C@H](CCCNC(=N)N)NC(=O)[C@H](CCCNC(=N)N)NC(=O)[C@H](C)NC(=O)[C@H](C)NC(=O)CCCCCNC(=O)CCCC[C@@H]1SC[C@@H]2NC(=O)N[C@@H]21)C(=O)N[C@@H](CC(=O)O)C(N)=O [3xDONSON] (HELM PEPTIDE1{[O=C1N[C@H]2[C@H](CS[C@H]2CCCCC(=O)[*:2])N1].[O=C(CCCCCN[*:1])[*:2]].A.A.R.R.N.P.F.A.R.L.D.A.R.R.N.P.F.A.R.L.D.A.A.R.R.N.P.F.A.R.L.D.[am]}$$$$V2.0) | 0.1 µM | 0.8 µM | – | – | –
5 | SRPMVIQESKSLLRNPFEAIRPGS [CLSPN 1223-1246, biotinylated NPF motif peptide of Claspin] | – | – | – | unable to bind to endogenous POLE | could not interact with POLE
6 | C[C@H](NC(=O)[C@H](C)NC(=O)[C@@H]1CCCN1C(=O)CNC(=O)CCCCCNC(=O)CCCC[C@@H]1SC[C@@H]2NC(=O)N[C@@H]21)C(=O)N[C@@H](C)C(=O)N[C@@H](CCCNC(=N)N)C(=O)N[C@@H](CCCNC(=N)N)C(=O)N[C@@H](CC(N)=O)C(=O)N1CCC[C@H]1C(=O)N[C@@H](Cc1ccccc1)C(=O)N[C@@H](CO)C(=O)N[C@@H](CC(=O)O)C(=O)N[C@@H](CCCNC(=N)N)C(=O)N[C@@H](CC(=O)O)C(=O)N[C@@H](CC(N)=O)C(=O)N[C@@H](CCCNC(=N)N)C(=O)N1CCC[C@H]1C(=O)N[C@@H](CCCNC(=N)N)C(N)=O [DONSON_SYNJ1_C] (HELM PEPTIDE1{[O=C1N[C@H]2[C@H](CS[C@H]2CCCCC(=O)[*:2])N1].[O=C(CCCCCN[*:1])[*:2]].G.P.A.A.A.R.R.N.P.F.S.D.R.D.N.R.P.R.[am]}$$$$V2.0) | 8.5 µM | > 20 µM | – | – | –
